Data: patent US20260355212A1 (priority 2022, published 2026)
Read-outs that look alike come from different tables or passages of the source.

How the values were obtained:
SARS-CoV-2 Mpro = SARS-CoV-2 Mpro (Severe acute respiratory syndrome coronavirus 2, UniProt P0DTD1); assay: SARS-CoV-2 Mpro enzymatic inhibition assay (fluorescence); format: biochemical
Method in brief: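 A fluorescence readout (340 nm excitation, 490 nm emission) was taken after the substrate reaction ran 60 min at 30° C. Before substrate addition, E. coli-expressed protease and compound (3-fold dilutions, 10 doses, duplicates) sat together 30 min at room temperature. Percent inhibition was fitted by variable-slope nonlinear regression to give IC50.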

HCoV-229E Mpro = HCoV-229E Mpro (Human coronavirus 229E, UniProt P0C6X1); assay: HCoV-229E Mpro enzymatic inhibition assay (fluorescence); format: biochemical
HCoV-HKU1 Mpro = HCoV-HKU1 Mpro (Human coronavirus HKU1, UniProt P0C6X2); assay: HCoV-HKU1 Mpro enzymatic inhibition assay (fluorescence); format: biochemical
Method in brief: (§1)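 Steps: compound dilution series (3-fold, 10 doses) dispensed; Mpro added and pre-incubated 30 min at room temperature; substrate added; plates incubated 60 min at 30 °C; fluorescence measured at Ex/Em=340 nm/490 nm.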

MERS Mpro = MERS Mpro (Middle East respiratory syndrome-related coronavirus, UniProt K9N7C7); assay: biochemical; design: species or system MERS-CoV
HCoV-NL63 Mpro = HCoV-NL63 Mpro (Human coronavirus NL63, UniProt P0C6X5); assay: HCoV-NL63 Mpro enzymatic inhibition assay (fluorescence); format: biochemical
Method in brief: as §1

HCoV-OC43 Mpro = HCoV-OC43 Mpro (Human coronavirus OC43, UniProt P0C6X6); assay: HCoV-OC43 Mpro enzymatic inhibition assay (fluorescence); format: biochemical
Method in brief: as §1

SARS-CoV-1 Mpro = SARS-CoV-1 Mpro (Severe acute respiratory syndrome coronavirus, UniProt P0C6X7); assay: biochemical
[1] = mean, 25 nM protein, 25 μM substrate, 30 min pre-incubation, 60 min at 30° C., read-out: Mpro_SARS-CoV-2 mean IC50

Sequence of HCoV-NL63 Mpro (P0C6X5 2940-3242 limits assumed): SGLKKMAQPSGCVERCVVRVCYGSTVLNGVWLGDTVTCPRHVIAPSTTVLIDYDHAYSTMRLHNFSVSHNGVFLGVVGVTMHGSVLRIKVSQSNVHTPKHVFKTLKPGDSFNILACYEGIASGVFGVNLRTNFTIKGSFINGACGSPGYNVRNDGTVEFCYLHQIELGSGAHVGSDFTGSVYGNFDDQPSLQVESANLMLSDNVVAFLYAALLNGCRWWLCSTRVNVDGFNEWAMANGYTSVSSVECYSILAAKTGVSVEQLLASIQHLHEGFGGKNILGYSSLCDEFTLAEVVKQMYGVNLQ
Sequence of HCoV-229E Mpro (P0C6X1 2966-3267 limits assumed): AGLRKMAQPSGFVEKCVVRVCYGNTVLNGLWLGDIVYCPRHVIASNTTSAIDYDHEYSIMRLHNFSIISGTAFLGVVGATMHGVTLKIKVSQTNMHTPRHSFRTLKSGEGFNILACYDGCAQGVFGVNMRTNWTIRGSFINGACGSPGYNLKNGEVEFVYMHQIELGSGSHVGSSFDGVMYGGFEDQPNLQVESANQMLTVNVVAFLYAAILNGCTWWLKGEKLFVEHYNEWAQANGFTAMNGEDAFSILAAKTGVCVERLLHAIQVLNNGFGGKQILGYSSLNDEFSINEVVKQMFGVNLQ
Sequence of MERS Mpro (K9N7C7 3248-3553 limits assumed): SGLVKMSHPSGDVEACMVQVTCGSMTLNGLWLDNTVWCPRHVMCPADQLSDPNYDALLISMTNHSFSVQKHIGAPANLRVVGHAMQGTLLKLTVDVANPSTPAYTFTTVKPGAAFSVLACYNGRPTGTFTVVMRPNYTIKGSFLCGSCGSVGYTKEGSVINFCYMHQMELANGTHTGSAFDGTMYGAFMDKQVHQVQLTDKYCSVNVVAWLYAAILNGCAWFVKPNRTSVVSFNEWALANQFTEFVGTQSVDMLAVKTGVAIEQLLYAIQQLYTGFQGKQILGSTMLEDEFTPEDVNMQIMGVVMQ
Sequence of HCoV-OC43 Mpro (P0C6X6 3247-3549 limits assumed): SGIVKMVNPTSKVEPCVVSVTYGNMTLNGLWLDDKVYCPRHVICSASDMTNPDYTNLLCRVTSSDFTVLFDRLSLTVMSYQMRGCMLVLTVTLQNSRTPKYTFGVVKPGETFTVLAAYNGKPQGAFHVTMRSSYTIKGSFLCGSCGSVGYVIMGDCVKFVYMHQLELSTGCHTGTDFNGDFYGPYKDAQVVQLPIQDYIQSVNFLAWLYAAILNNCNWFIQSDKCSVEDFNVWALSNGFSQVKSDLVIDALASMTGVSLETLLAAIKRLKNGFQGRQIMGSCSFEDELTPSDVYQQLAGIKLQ
Sequence of HCoV-HKU1 Mpro (P0C6X2 3335-3637 limits assumed): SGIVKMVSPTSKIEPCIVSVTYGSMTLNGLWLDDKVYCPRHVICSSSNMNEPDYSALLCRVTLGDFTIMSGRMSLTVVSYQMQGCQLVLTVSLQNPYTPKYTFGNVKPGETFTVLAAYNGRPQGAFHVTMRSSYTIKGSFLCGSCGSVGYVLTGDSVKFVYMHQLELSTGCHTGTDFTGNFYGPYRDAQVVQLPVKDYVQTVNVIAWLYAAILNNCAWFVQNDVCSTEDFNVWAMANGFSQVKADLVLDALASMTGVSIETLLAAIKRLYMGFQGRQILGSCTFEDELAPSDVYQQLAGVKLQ

Q: What does the source list for `CC1(C)C[C@@H](C(=O)N[C@H](C=O)C[C@@H]2CCNC2=O)N(C(=O)c2cc3cccc(C#N)c3[nH]2)C1` [Compound 58, (S)-1-(7-Cyano-1H-indole-2-carbonyl)-4,4-dimethyl-N—((S)-1-oxo-3-((S)-2-oxopyrrolidin-3-yl)propan-2-yl)pyrrolidine-2-carboxamide]?
A: IC50 (SARS-CoV-2 Mpro): 0.0258 µM; IC50 (HCoV-229E Mpro): 0.0285 µM; IC50 (HCoV-HKU1 Mpro): 0.019 µM; IC50 (MERS Mpro): 0.338 µM; IC50 (HCoV-NL63 Mpro): 0.0407 µM; IC50 (HCoV-OC43 Mpro): 0.0563 µM; IC50 (SARS-CoV-1 Mpro): 0.0628 µM

Q: For `CC1(C)[C@@H]2[C@@H](C(=O)N[C@H](C=O)C[C@@H]3CCNC3=O)N(C(=O)c3cc4c(C#N)cccc4[nH]3)C[C@@H]21` [Compound 59, (1R,2S,5S)-3-(4-Cyano-1H-indole-2-carbonyl)-6,6-dimethyl-N—((S)-1-oxo-3-((S)-2-oxopyrrolidin-3-yl)propan-2-yl)-3-azabicyclo[3.1.0]hexane-2-carboxamide], which IC50 (SARS-CoV-2 Mpro; [1]) is on record?
A: 0.026 µM

Q: And the IC50 (HCoV-229E Mpro)?
A: 0.0426 µM

Q: What about the IC50 (HCoV-HKU1 Mpro) of the same molecule?
A: 0.0229 µM

Q: What about the IC50 (MERS Mpro) of the same molecule?
A: 0.23 µM

Q: And the IC50 (HCoV-NL63 Mpro)?
A: 0.0641 µM

Q: What about the IC50 (HCoV-OC43 Mpro) of the same molecule?
A: 0.0575 µM

Q: What about the IC50 (SARS-CoV-1 Mpro) of the same molecule?
A: 0.0834 µM

Q: What does the source list for `CC1(C)[C@@H]2[C@@H](C(=O)N[C@H](C=O)C[C@@H]3CCNC3=O)N(C(=O)c3cc4ccccc4[nH]3)C[C@@H]21` [Compound 60, (1R,2S,5S)-3-(1H-Indole-2-carbonyl)-6,6-dimethyl-N—((S)-1-oxo-3-((S)-2-oxopyrrolidin-3-yl)propan-2-yl)-3-azabicyclo[3.1.0]hexane-2-carboxamide]?
A: IC50 (SARS-CoV-2 Mpro; [1]): 0.026 µM; IC50 (HCoV-229E Mpro): 0.0537 µM; IC50 (HCoV-HKU1 Mpro): 0.0289 µM; IC50 (MERS Mpro): 0.273 µM; IC50 (HCoV-NL63 Mpro): 0.054 µM; IC50 (HCoV-OC43 Mpro): 0.0949 µM; IC50 (SARS-CoV-1 Mpro): 0.052 µM

Q: Which results are given for `O=C[C@H](C[C@@H]1CCNC1=O)NC(=O)[C@@H]1C[C@@H](C2CCCCC2)CN1C(=O)c1cc2ccccc2[nH]1` [Compound 61, (2S,4S)-4-Cyclohexyl-1-(1H-indole-2-carbonyl)-N—((S)-1-oxo-3-((S)-2-oxopyrrolidin-3-yl)propan-2-yl)pyrrolidine-2-carboxamide]?
A: IC50 (SARS-CoV-2 Mpro; [1]): 0.026 µM; IC50 (HCoV-229E Mpro): 0.0432 µM; IC50 (HCoV-HKU1 Mpro): 0.0126 µM; IC50 (MERS Mpro): 0.438 µM; IC50 (HCoV-NL63 Mpro): 0.2 µM; IC50 (HCoV-OC43 Mpro): 0.0387 µM; IC50 (SARS-CoV-1 Mpro): 0.147 µM

Q: How did the IC50 (SARS-CoV-2 Mpro) turn out when `CC1(C)C[C@@H](C(=O)N[C@H](C=O)C[C@@H]2CCNC2=O)N(C(=O)c2cc3cccc(F)c3[nH]2)C1` [Compound 62, (S)-1-(7-Fluoro-1H-indole-2-carbonyl)-4,4-dimethyl-N—((S)-1-oxo-3-((S)-2-oxopyrrolidin-3-yl)propan-2-yl)pyrrolidine-2-carboxamide] was run?
A: 0.0263 µM

Q: What about the IC50 (HCoV-229E Mpro) of the same molecule?
A: 0.0644 µM

Q: And the IC50 (HCoV-HKU1 Mpro)?
A: 0.0557 µM

Q: What about the IC50 (MERS Mpro) of the same molecule?
A: 0.535 µM

Q: What about the IC50 (HCoV-NL63 Mpro) of the same molecule?
A: 0.0907 µM

Q: And the IC50 (HCoV-OC43 Mpro)?
A: 0.145 µM

Q: And the IC50 (SARS-CoV-1 Mpro)?
A: 0.0771 µM

Q: `CC1(C)[C@@H]2[C@@H](C(=O)N[C@H](C=O)C[C@@H]3CCNC3=O)N(C(=O)CC3CCCCC3(F)F)C[C@@H]21` (stereo partly drawn) [Compound 64, (1R,2S,5S)-3-(2-(2,2-Difluorocyclohexyl)acetyl)-6,6-dimethyl-N—((S)-1-oxo-3-((S)-2-oxopyrrolidin-3-yl)propan-2-yl)-3-azabicyclo[3.1.0]hexane-2-carboxamide] was tested. Which IC50 (SARS-CoV-2 Mpro) did it give?
A: 0.027 µM

Q: And the IC50 (HCoV-229E Mpro)?
A: 0.0532 µM

Q: What about the IC50 (HCoV-HKU1 Mpro) of the same molecule?
A: 0.0465 µM

Q: And the IC50 (MERS Mpro)?
A: 0.224 µM

Q: What about the IC50 (HCoV-NL63 Mpro) of the same molecule?
A: 0.105 µM

Q: And the IC50 (HCoV-OC43 Mpro)?
A: 0.0658 µM

Q: And the IC50 (SARS-CoV-1 Mpro)?
A: 0.0466 µM

Q: Which results are given for `COc1cccc2[nH]c(C(=O)N3C[C@H]4[C@@H]([C@H]3C(=O)N[C@H](C=O)C[C@@H]3CCNC3=O)C4(C)C)cc12` [Compound 65, (1R,2S,5S)-3-(4-Methoxy-1H-indole-2-carbonyl)-6,6-dimethyl-N—((S)-1-oxo-3-((S)-2-oxopyrrolidin-3-yl)propan-2-yl)-3-azabicyclo[3.1.0]hexane-2-carboxamide]?
A: IC50 (SARS-CoV-2 Mpro; [1]): 0.027 µM; IC50 (HCoV-229E Mpro): 0.038 µM; IC50 (HCoV-HKU1 Mpro): 0.0211 µM; IC50 (MERS Mpro): 0.32 µM; IC50 (HCoV-NL63 Mpro): 0.0241 µM; IC50 (HCoV-OC43 Mpro): 0.0252 µM; IC50 (SARS-CoV-1 Mpro): 0.0331 µM

Q: With `C[C@@H](C(=O)N1C[C@H]2[C@@H]([C@H]1C(=O)N[C@H](C=O)C[C@@H]1CCNC1=O)C2(C)C)C1CCCCC1` [Compound 67, (1R,2S,5S)-3-((R)-2-Cyclohexylpropanoyl)-6,6-dimethyl-N—((S)-1-oxo-3-((S)-2-oxopyrrolidin-3-yl)propan-2-yl)-3-azabicyclo[3.1.0]hexane-2-carboxamide] as the molecule, how does the IC50 (SARS-CoV-2 Mpro) read?
A: 0.0278 µM

Q: And the IC50 (HCoV-229E Mpro)?
A: 0.0273 µM

Q: What about the IC50 (HCoV-HKU1 Mpro) of the same molecule?
A: 0.0108 µM

Q: What about the IC50 (MERS Mpro) of the same molecule?
A: 0.17 µM

Q: And the IC50 (HCoV-NL63 Mpro)?
A: 0.0518 µM

Q: And the IC50 (HCoV-OC43 Mpro)?
A: 0.0332 µM

Q: What about the IC50 (SARS-CoV-1 Mpro) of the same molecule?
A: 0.0441 µM

Q: With `Cc1cc(Cl)cc2cc(C(=O)N3C[C@H]4[C@@H]([C@H]3C(=O)N[C@H](C=O)C[C@@H]3CCNC3=O)C4(C)C)[nH]c12` [Compound 69, (1R,2S,5S)-3-(5-Chloro-7-methyl-1H-indole-2-carbonyl)-6,6-dimethyl-N—((S)-1-oxo-3-((S)-2-oxopyrrolidin-3-yl)propan-2-yl)-3-azabicyclo[3.1.0]hexane-2-carboxamide] as the molecule, how does the IC50 (SARS-CoV-2 Mpro) read?
A: 0.0292 µM

Q: And the IC50 (HCoV-229E Mpro)?
A: 0.0505 µM

Q: What about the IC50 (HCoV-HKU1 Mpro) of the same molecule?
A: 0.0326 µM

Q: And the IC50 (MERS Mpro)?
A: 0.476 µM

Q: And the IC50 (HCoV-NL63 Mpro)?
A: 0.0807 µM

Q: What about the IC50 (HCoV-OC43 Mpro) of the same molecule?
A: 0.0798 µM

Q: What about the IC50 (SARS-CoV-1 Mpro) of the same molecule?
A: 0.0488 µM

Q: For `O=C[C@H](C[C@@H]1CCNC1=O)NC(=O)[C@@H]1C[C@@H](C2CCCCC2)CN1C(=O)c1cc2cccc(F)c2[nH]1` [Compound 71, (2S,4S)-4-cyclohexyl-1-(7-fluoro-1H-indole-2-carbonyl)-N—((S)-1-oxo-3-((S)-2-oxopyrrolidin-3-yl)propan-2-yl)pyrrolidine-2-carboxamide], which IC50 (SARS-CoV-2 Mpro) is on record?
A: 0.0304 µM

Q: What about the IC50 (HCoV-229E Mpro) of the same molecule?
A: 0.0535 µM

Q: And the IC50 (HCoV-HKU1 Mpro)?
A: 0.0349 µM

Q: And the IC50 (MERS Mpro)?
A: 1.42 µM

Q: And the IC50 (HCoV-NL63 Mpro)?
A: 0.414 µM

Q: And the IC50 (HCoV-OC43 Mpro)?
A: 0.133 µM

Q: What about the IC50 (SARS-CoV-1 Mpro) of the same molecule?
A: 0.0956 µM

Q: How did the IC50 (SARS-CoV-2 Mpro) turn out when `Cc1ccc2cc(C(=O)N3C[C@H]4[C@@H]([C@H]3C(=O)N[C@H](C=O)C[C@@H]3CCNC3=O)C4(C)C)[nH]c2c1` [Compound 72, (1R,2S,5S)-6,6-Dimethyl-3-(6-methyl-1H-indole-2-carbonyl)-N—((S)-1-oxo-3-((S)-2-oxopyrrolidin-3-yl)propan-2-yl)-3-azabicyclo[3.1.0]hexane-2-carboxamide] was run?
A: 0.0313 µM

Q: And the IC50 (HCoV-229E Mpro)?
A: 0.0301 µM

Q: And the IC50 (HCoV-HKU1 Mpro)?
A: 0.0208 µM

Q: What about the IC50 (MERS Mpro) of the same molecule?
A: 0.346 µM

Q: What about the IC50 (HCoV-NL63 Mpro) of the same molecule?
A: 0.0217 µM

Q: And the IC50 (HCoV-OC43 Mpro)?
A: 0.0494 µM

Q: What about the IC50 (SARS-CoV-1 Mpro) of the same molecule?
A: 0.0589 µM

Q: Which results are given for `CC(C)(C)CCC(=O)N1C[C@H]2[C@@H]([C@H]1C(=O)N[C@H](C=O)C[C@@H]1CCNC1=O)C2(C)C` [Compound 73, (1R,2S,5S)-3-(4,4-Dimethylpentanoyl)-6,6-dimethyl-N—((S)-1-oxo-3-((S)-2-oxopyrrolidin-3-yl)propan-2-yl)-3-azabicyclo[3.1.0]hexane-2-carboxamide]?
A: IC50 (SARS-CoV-2 Mpro; [1]): 0.0318 µM; IC50 (HCoV-229E Mpro): 0.0626 µM; IC50 (HCoV-HKU1 Mpro): 0.0575 µM; IC50 (MERS Mpro): 0.326 µM; IC50 (HCoV-NL63 Mpro): 0.182 µM; IC50 (HCoV-OC43 Mpro): 0.0714 µM; IC50 (SARS-CoV-1 Mpro): 0.0631 µM

Q: Which results are given for `CC1(C)[C@@H]2[C@@H](C(=O)N[C@H](C=O)C[C@@H]3CCNC3=O)N(C(=O)c3cc4ccc(C#N)cc4[nH]3)C[C@@H]21` [Compound 74, (1R,2S,5S)-3-(6-Cyano-1H-indole-2-carbonyl)-6,6-dimethyl-N—((S)-1-oxo-3-((S)-2-oxopyrrolidin-3-yl)propan-2-yl)-3-azabicyclo[3.1.0]hexane-2-carboxamide]?
A: IC50 (SARS-CoV-2 Mpro): 0.032 µM; IC50 (HCoV-229E Mpro): 0.0553 µM; IC50 (HCoV-HKU1 Mpro): 0.0409 µM; IC50 (MERS Mpro): 0.479 µM; IC50 (HCoV-NL63 Mpro): 0.0868 µM; IC50 (HCoV-OC43 Mpro): 0.0864 µM; IC50 (SARS-CoV-1 Mpro): 0.0614 µM
